Test results published in patent publication US9328106B2, “Cyclic ether pyrazol-4-yl-heterocyclyl-carboxamide compounds and methods of use” (Genentech, Inc., priority 2012, dated 2016).

target: PIM1 (Homo sapiens (Human), UniProt P11309); assay: biochemical; type: biochemical; settings: not given
Sequence (P11309 whole entry): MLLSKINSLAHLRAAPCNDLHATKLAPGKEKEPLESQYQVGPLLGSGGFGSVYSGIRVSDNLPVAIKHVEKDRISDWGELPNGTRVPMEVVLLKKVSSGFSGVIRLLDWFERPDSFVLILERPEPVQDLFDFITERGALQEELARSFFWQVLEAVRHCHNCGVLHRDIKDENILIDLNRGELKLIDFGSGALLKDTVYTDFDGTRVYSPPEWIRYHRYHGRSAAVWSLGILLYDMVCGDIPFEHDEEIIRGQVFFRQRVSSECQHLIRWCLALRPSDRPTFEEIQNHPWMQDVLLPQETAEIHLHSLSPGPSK

Row | Compound | Ki
1 | Cn1ncc(NC(=O)c2csc(-c3c(F)cc(C(O)C4CC4)cc3F)n2)c1[C@@H]1CC[C@@H](N)[C@H](F)CO1 (stereo partly drawn) [Example 275, N-(5-((2S,5R,6S)-5-amino-6-fluorooxepan-2-yl)-1-methyl-1H-pyrazol-4-yl)-2-(4-(cyclopropyl(hydroxy)methyl)-2,6-difluorophenyl)thiazole-4-carboxamide] | 0.037 nM

same assay, conditions: 20 pM PIM1, 1 μM FAM-peptide, 10 μM ATP, 90 minutes at room temperature; read-out: PIM1 LC3K (KI)

Row | Compound | Ki
2 | CC[C@@H]1C[C@H](N)CC[C@H](c2c(NC(=O)c3nc(-c4c(F)cccc4F)sc3N)cnn2C)O1 [Example 125, 5-amino-N-(5-((2R,7R)-5-amino-7-ethyloxepan-2-yl)-1-methyl-1H-pyrazol-4-yl)-2-(2,6-difluorophenyl)thiazole-4-carboxamide] | 3.5 nM
3 | Cn1ncc(NC(=O)c2nc(-c3c(F)cccc3F)sc2N)c1C1CC[C@@H](O)[C@@H](O)CO1 (stereo partly drawn) [Example 111, 5-amino-2-(2,6-difluorophenyl)-N-(5-((5R,6S)-5,6-dihydroxyoxepan-2-yl)-1-methyl-1H-pyrazol-4-yl)thiazole-4-carboxamide] | 0.425 nM
4 | Cn1ncc(NC(=O)c2csc(-c3ccc[nH]c3=O)n2)c1[C@@H]1CC[C@@H](N)[C@H](F)CO1 [Example 233, N-(5-((2S,5R,6S)-5-amino-6-fluorooxepan-2-yl)-1-methyl-1H-pyrazol-4-yl)-2-(2-oxo-1,2-dihydropyridin-3-yl)thiazole-4-carboxamide] | 0.103 nM
5 | Cn1ncc(NC(=O)c2csc(-c3c(F)cc(C(C)(C)O)cc3F)n2)c1[C@@H]1CC[C@@H](N)[C@H](F)CO1 [Example 297, N-(5-((2S,5R,6S)-5-amino-6-fluorooxepan-2-yl)-1-methyl-1H-pyrazol-4-yl)-2-(2,6-difluoro-4-(2-hydroxypropan-2-yl)phenyl)thiazole-4-carboxamide] | 0.021 nM
6 | Cn1ncc(NC(=O)c2nc(-c3ccncc3F)sc2N)c1[C@@H]1CC[C@@H](N)[C@@H](F)CO1 [Example 182, 5-Amino-N-[5-[(2S,5R,6R)-5-amino-6-fluoro-oxepan-2-yl]-1-methyl-pyrazol-4-yl]-2-(3-fluoro-4-pyridyl)thiazole-4-carboxamide] | 0.051 nM
7 | Cc1cccnc1-c1nc(C(=O)Nc2cnn(C)c2[C@@H]2CC[C@@H](N)[C@H](F)CO2)cs1 [Example 231, N-(5-((2S,5R,6S)-5-amino-6-fluorooxepan-2-yl)-1-methyl-1H-pyrazol-4-yl)-2-(3-methylpyridin-2-yl)thiazole-4-carboxamide] | 0.045 nM
8 | Cn1ncc(NC(=O)c2csc(-c3cc(F)cc(F)c3F)n2)c1[C@@H]1CC[C@@H](N)[C@H](F)CO1 [Example 236, N-(5-((2S,5R,6S)-5-amino-6-fluorooxepan-2-yl)-1-methyl-1H-pyrazol-4-yl)-2-(2,3,5-trifluorophenyl)thiazole-4-carboxamide] | 0.255 nM
9 | Cn1ncc(NC(=O)c2csc(-c3cnc4cccnc4c3)n2)c1[C@@H]1CC[C@@H](N)[C@H](F)CO1 [Example 399, N-[5-[(2S,5R,6S)-5-amino-6-fluoro-oxepan-2-yl]-1-methyl-pyrazol-4-yl]-2-(1,5-naphthyridin-3-yl)thiazole-4-carboxamide] | 0.21 nM
10 | Cn1ncc(NC(=O)c2nc(-c3c(F)cccc3F)sc2N)c1C1C[C@@H](N)[C@H](F)CCO1 (stereo partly drawn) [Example 141, 5-amino-N-(5-((4R,5R)-4-amino-5-fluorooxepan-2-yl)-1-methyl-1H-pyrazol-4-yl)-2-(2,6-difluorophenyl)thiazole-4-carboxamide] | 0.07 nM
11 | Cn1ncc(NC(=O)c2nc(-c3c(F)cccc3F)sc2N)c1C1CCC(N)COC1 (stereo not drawn) [Example 147, 5-amino-N-[5-(6-aminooxepan-3-yl)-1-methyl-pyrazol-4-yl]-2-(2,6-difluorophenyl)thiazole-4-carboxamide] | 0.141 nM
12 | Cn1ncc(NC(=O)c2ccc(F)c(-c3c(F)cc(C(O)(CO)CO)cc3F)n2)c1[C@@H]1CC[C@@H](N)[C@@H](F)CO1 [Example 212, N-(5-((2S,5R,6R)-5-amino-6-fluorooxepan-2-yl)-1-methyl-1H-pyrazol-4-yl)-6-(2,6-difluoro-4-(1,2,3-trihydroxypropan-2-yl)phenyl)-5-fluoropicolinamide] | 0.162 nM
13 | CC(O)c1cc(F)c(-c2nc(C(=O)Nc3cnn(C)c3[C@@H]3CC[C@@H](N)[C@H](F)CO3)cs2)c(F)c1 (stereo partly drawn) [Example 294, N-(5-((2S,5R,6S)-5-amino-6-fluorooxepan-2-yl)-1-methyl-1H-pyrazol-4-yl)-2-(2,6-difluoro-4-(1-hydroxyethyl)phenyl)thiazole-4-carboxamide] | 0.029 nM
14 | Cn1ncc(NC(=O)c2ccc(F)c(-c3cccc(F)c3Cl)n2)c1[C@@H]1CC[C@@H](N)[C@H](F)CO1 [Example 227, N-(5-((2S,5R,6S)-5-amino-6-fluorooxepan-2-yl)-1-methyl-1H-pyrazol-4-yl)-6-(2-chloro-3-fluorophenyl)-5-fluoropicolinamide] | 0.57 nM
15 | Cc1noc(C)c1-c1nc(C(=O)Nc2cnn(C)c2[C@@H]2CC[C@@H](N)[C@H](F)CO2)cs1 [Example 234, N-(5-((2S,5R,6S)-5-amino-6-fluorooxepan-2-yl)-1-methyl-1H-pyrazol-4-yl)-2-(3,5-dimethylisoxazol-4-yl)thiazole-4-carboxamide] | 0.068 nM
16 | Cn1ncc(NC(=O)c2csc(-c3cccc4cnn(C)c34)n2)c1[C@@H]1CC[C@@H](N)[C@H](F)CO1 [Example 403, N-[5-[(2S,5R,6S)-5-amino-6-fluoro-oxepan-2-yl]-1-methyl-pyrazol-4-yl]-2-(1-methylindazol-7-yl)thiazole-4-carboxamide] | 5.91 nM
17 | COc1cc(F)c(-c2nc(C(=O)Nc3cnn(C)c3[C@@H]3CC[C@@H](N)[C@@H](F)CO3)cs2)c(F)c1 [Example 288, N-(5-((2S,5R,6R)-5-amino-6-fluorooxepan-2-yl)-1-methyl-1H-pyrazol-4-yl)-2-(2,6-difluoro-4-methoxyphenyl)thiazole-4-carboxamide] | 0.035 nM
18 | CCc1ccc(F)c(-c2nc(C(=O)Nc3cnn(C)c3[C@@H]3CC[C@@H](N)[C@H](F)CO3)cs2)c1 [Example 307, N-(5-((2S,5R,6S)-5-amino-6-fluorooxepan-2-yl)-1-methyl-1H-pyrazol-4-yl)-2-(5-ethyl-2-fluorophenyl)thiazole-4-carboxamide] | 0.081 nM
19 | Cn1ncc(NC(=O)c2nc(-c3c(F)cccc3F)sc2N)c1[C@@H]1CC[C@@H](CN)O1 (stereo in doubt) [Example 155, 5-Amino-N-[5-[5-(aminomethyl)tetrahydrofuran-2-yl]-1-methyl-pyrazol-4-yl]-2-(2,6-difluorophenyl)thiazole-4-carboxamide] | 0.104 nM
20 | COC1(c2c(NC(=O)c3nc(-c4ncccc4F)sc3N)cnn2C)CCCCO1 (stereo not drawn) [Example 105, 5-amino-2-(3-fluoro-2-pyridyl)-N-[5-(2-methoxytetrahydropyran-2-yl)-1-methyl-pyrazol-4-yl]thiazole-4-carboxamide] | 0.118 nM
21 | Cn1ncc(NC(=O)c2nc(-c3c(F)cccc3F)sc2N)c1[C@H]1CCC(F)[C@@H](N)CO1 (stereo in doubt) [Example 145, 5-Amino-N-[5-[6-amino-5-fluoro-oxepan-2-yl]-1-methyl-pyrazol-4-yl]-2-(2,6-difluorophenyl)thiazole-4-carboxamide] | 0.351 nM
22 | Cn1ncc(NC(=O)c2nc(-c3c(F)cccc3F)sc2N)c1C1CCC(N)C(F)CO1 (stereo not drawn) [Example 124, 5-amino-N-[5-(5-amino-6-fluoro-oxepan-2-yl)-1-methyl-pyrazol-4-yl]-2-(2,6-difluorophenyl)thiazole-4-carboxamide] | 0.015 nM
23 | COc1ccc(-c2nc(C(=O)Nc3cnn(C)c3[C@@H]3CC[C@@H](N)[C@@H](F)CO3)cs2)c(F)c1 [Example 287, N-(5-((2S,5R,6R)-5-amino-6-fluorooxepan-2-yl)-1-methyl-1H-pyrazol-4-yl)-2-(2-fluoro-4-methoxyphenyl)thiazole-4-carboxamide] | 0.053 nM
24 | Cn1ncc(NC(=O)c2ccc(F)c(-c3c(F)cc(C4(O)CCC4)cc3F)n2)c1[C@@H]1CC[C@@H](N)[C@@H](F)CO1 [Example 290, N-(5-((2S,5R,6R)-5-amino-6-fluorooxepan-2-yl)-1-methyl-1H-pyrazol-4-yl)-6-(2,6-difluoro-4-(1-hydroxycyclobutyl)phenyl)-5-fluoropicolinamide] | 0.0131 nM
25 | COc1ccc(F)c(F)c1-c1nc(C(=O)Nc2cnn(C)c2[C@@H]2CC[C@@H](N)[C@@H](F)CO2)c(N)s1 [Example 277, 5-amino-N-(5-((2S,5R,6R)-5-amino-6-fluorooxepan-2-yl)-1-methyl-1H-pyrazol-4-yl)-2-(2,3-difluoro-6-methoxyphenyl)thiazole-4-carboxamide] | 0.143 nM
26 | Cn1ncc(NC(=O)c2nc(-c3c(F)cccc3F)sc2N)c1[C@H]1OC[C@@](C)(CN)CO1 [Example 178, 5-Amino-N-[5-[5-(aminomethyl)-5-methyl-1,3-dioxan-2-yl]-1-methyl-pyrazol-4-yl]-2-(2,6-difluorophenyl)thiazole-4-carboxamide] | 0.155 nM
27 | Cn1ncc(NC(=O)c2nc(-c3ccccc3C(F)F)sc2N)c1[C@@H]1CC[C@@H](N)[C@H](F)CO1 [Example 335, 5-amino-N-(5-((2S,5R,6S)-5-amino-6-fluorooxepan-2-yl)-1-methyl-1H-pyrazol-4-yl)-2-(2-(difluoromethyl)phenyl)thiazole-4-carboxamide] | 0.092 nM
28 | Cn1ncc(NC(=O)c2nc(C3=CCCC3)sc2N)c1[C@@H]1CC[C@@H](N)[C@@H](F)CO1 [Example 271, 5-amino-N-(5-((2S,5R,6R)-5-amino-6-fluorooxepan-2-yl)-1-methyl-1H-pyrazol-4-yl)-2-(cyclopent-1-en-1-yl)thiazole-4-carboxamide] | 0.062 nM
29 | Cn1ncc(NC(=O)c2csc(-c3c(F)cccc3CO)n2)c1[C@@H]1CC[C@@H](N)[C@H](F)CO1 [Example 382, N-[5-[(2S,5R,6S)-5-amino-6-fluoro-oxepan-2-yl]-1-methyl-pyrazol-4-yl]-2-[2-fluoro-6-(hydroxymethyl)phenyl]thiazole-4-carboxamide] | 7.2 nM
30 | Cn1ncc(NC(=O)c2csc(-c3ccncc3F)n2)c1[C@@H]1CC[C@@H](N)[C@H](F)CO1 [Example 300, N-(5-((2S,5R,6S)-5-amino-6-fluorooxepan-2-yl)-1-methyl-1H-pyrazol-4-yl)-2-(3-fluoropyridin-4-yl)thiazole-4-carboxamide] | 0.134 nM
